# Data as given in patent US20220388979A1, “QUINOLINE DERIVATIVES AS PROTEIN KINASE INHIBITORS” (B.C.I. PHARMA, priority 2019, published 2022).
# What was measured:
# male C57B16J mice = experiment: Streptozotocin-induced diabetic neuropathic pain model, Von Frey mechanical threshold (compound 108 study); assay type: in vivo; settings: pregabalin subcutaneous 0.5 mg/mL in phosphate buffer (100 μL/10 g)
# Description: The experiment has been conducted in 8 weeks old male C57B16J mice (from Charles River). For this study, 10 mice per group have been used.
# (§1) Diabetes has been induced by a single IP injection of 200 μg/mL streptozotocin solution (100 μL/10 g). Glycemia has been tested before, D+3 and D+7 post-injection. All injected mice presented blood glucose concentration […] at D+7, and then have been used for analgesic testing of the compounds.
# Compound 108 has been orally administrated at 2, 5 and 10 mg/mL in 0.9% NaCl solution (50 μL/10 g) and pregabalin has been subcutaneously injected at 0.5 mg/mL in phosphate buffer (100 μL/10 g) at D+14 and D+17. A time course measurement at +1 h, +2 h, +4 h and +6 h has been performed after compound administration.
# (§2) Mechanical threshold response of mice has been measured with calibrated Von Frey filaments using the up/down method, blind for manipulator. Measurements have been performed before streptozotocin injection and 14 days after.
# (§3) Statistical analysis was performed using SigmaPlot 12.5 software. Percentage of maximum possible effect is calculated as follow
# (§4) % MPE=[(Test−Prest)/(cut-off−Prest)]*100
# (§5) Where cut-off, Test and Pretest values correspond respectively to baseline measure, timepoint post-administration measure and measure before administration.
# male C57Bl6J mice = experiment: Streptozotocin-induced diabetic neuropathic pain model, Von Frey mechanical threshold (compound 32 study); assay type: in vivo; settings: pregabalin subcutaneous 0.5 mg/mL in phosphate buffer (100 μL/10 g)
# Description: The experiment has been conducted in 8 weeks old male C57Bl6J mice (from Charles River). For this study, 6 mice per group have been used.
# as §1
# Compound 32 has been orally administrated at 6 mg/mL in Capryol 90 solution (50 μL/10 g) and pregabalin has been subcutaneously injected at 0.5 mg/mL in phosphate buffer (100 μL/10 g) at D+14 and D+16. A time course measurement at +1 h, +2 h, +4 h and +6 h has been performed after compound administration.
# as §2, §3, §4, §5
compound,measurement,setting,value
"CC(C)C[C@H](CN)CC(=O)O [Pregabalin, pregabalin]",Analgesic effect expressed as % MPE,male C57B16J mice; +1 h,76.6 ± 15.4 % MPE
same,Analgesic effect expressed as % of baseline,male C57B16J mice; +1 h,80.6 ± 12.4 % of baseline
same,Analgesic effect expressed as % MPE,male C57B16J mice; +2 h,79.5 ± 13.7 % MPE
same,Analgesic effect expressed as % of baseline,male C57B16J mice; +2 h,85.7 ± 10.7 % of baseline
same,Analgesic effect expressed as % MPE,male C57B16J mice; +4 h,31.0 ± 17.0 % MPE
same,Analgesic effect expressed as % of baseline,male C57B16J mice; +4 h,45.6 ± 13.0 % of baseline
same,Analgesic effect expressed as % MPE,male C57B16J mice; +6 h,10.9 ± 7.5 % MPE
same,Analgesic effect expressed as % of baseline,male C57B16J mice; +6 h,30.3 ± 4.8 % of baseline
same,Analgesic effect expressed as % MPE,male C57Bl6J mice; +1 h,80.7 ± 10.8 % MPE
same,Analgesic effect expressed as % of baseline,male C57Bl6J mice; +1 h,81.2 ± 7.9 % of baseline
same,Analgesic effect expressed as % MPE,male C57Bl6J mice; +2 h,84.6 ± 10.6 % MPE
same,Analgesic effect expressed as % of baseline,male C57Bl6J mice; +2 h,86.0 ± 9.1 % of baseline
same,Analgesic effect expressed as % MPE,male C57Bl6J mice; +4 h,33.9 ± 5.8 % MPE
same,Analgesic effect expressed as % of baseline,male C57Bl6J mice; +4 h,45.0 ± 5.3 % of baseline
same,Analgesic effect expressed as % MPE,male C57Bl6J mice; +6 h,5.9 ± 4.3 % MPE
same,Analgesic effect expressed as % of baseline,male C57Bl6J mice; +6 h,23.5 ± 2.1 % of baseline
